# Read-outs that look alike come from different tables or passages of the source.
# Molecular target: T1, rat M1 receptor (Rattus norvegicus, UniProt P08482)
# T1 construct: host or cells: CHO-K1
# T1 sequence (P08482 1-460): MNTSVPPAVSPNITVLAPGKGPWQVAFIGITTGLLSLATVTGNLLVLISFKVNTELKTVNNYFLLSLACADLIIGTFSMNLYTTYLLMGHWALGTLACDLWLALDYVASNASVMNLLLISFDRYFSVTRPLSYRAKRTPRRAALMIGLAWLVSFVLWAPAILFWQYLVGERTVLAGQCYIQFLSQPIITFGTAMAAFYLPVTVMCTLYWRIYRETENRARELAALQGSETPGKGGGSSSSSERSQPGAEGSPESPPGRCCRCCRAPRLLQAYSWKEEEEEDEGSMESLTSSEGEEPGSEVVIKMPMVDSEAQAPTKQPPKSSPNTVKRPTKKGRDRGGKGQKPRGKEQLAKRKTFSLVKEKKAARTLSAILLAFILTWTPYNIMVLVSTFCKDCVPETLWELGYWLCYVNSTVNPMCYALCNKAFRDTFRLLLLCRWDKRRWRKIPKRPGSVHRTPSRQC
# Assay: Calcium mobilization assay, CHO-K1 cells stably expressing rat M1 (low throughput, Flexstation II)
# Assay type: cell-based
# Details: for Emax: CHO-K1, read-out: Efficacy (% Max ACh)
# Excerpt: Chinese hamster ovary (CHO-K1) cells stably expressing rat (r)M1 were purchased from the American Type Culture Collection and cultured according to their indicated protocol. CHO cells stably expressing human (h)M2, hM3, and hM5 were described previously (Levey et al., 1991); hM1 and hM4 cDNAs were purchased from Missouri S&T cDNA Resource; rM4 cDNA was provided by T. I. Bonner (National Institutes of Health, Bethesda, Md.). hM1, hM4, and rM4 cDNAs were used to stably transfect CHO-K1 cells purchased from the American Type Culture Collection using Lipofectamine2000. To make stable hM2, hM4 and rM4 cell lines for use in calcium mobilization assays, these cells also were stably transfected with a chimeric G-protein (Gqi5) (provided by B. R. Conklin, University of California, San Francisco) using Lipofectamine 2000. rM1, hM3, and hM5 cells were grown in Ham's F-12 medium containing 10% heat-inactivated fetal bovine serum (FBS), 20 mM HEPES, and 50 μg/mL G418 sulfate. hM2-Gqi5 and hM4-Gqi5 cells were grown in the same medium also containing 500 μg/mL Hygromycin B. Stable rM4-Gqi5 cells were grown in DMEM containing 10% heat-inactivated FBS, 20 mM HEPES, 400 μg/mL G418 sulfate, and 500 μg/mL Hygromycin B. The rat M1 Y381A orthosteric mutant receptor cDNA was generated using the Quik-Change site-directed mutagenesis kit (Stratagene) and verified by sequencing. CHO-K1 cells were stably transfected with this cDNA using Lipofectamine2000 and screened for expression based on calcium mobilization in response to the allosteric M1 agonist N-desmethylclozapine.
# For low throughput measurement of agonist-evoked increases in intracellular calcium, CHO-K1 cells stably expressing muscarinic receptors were plated in 100 μL of growth medium at 5×10^4 (rM1, hM3, and hM5) or 6×10^4 cells per well (rM1 Y381A, hM2, and rM4) in Costar 96-well black-walled, tissue culture (TC)-treated, clear-bottom plates (Fisher). Cells were incubated overnight at 37° C. and 5% CO2. The next day, medium was removed from the cells, and they were incubated with 50 μL of 2 μM Fluo-4/acetoxymethyl ester (Invitrogen, Carlsbad, Calif.) prepared as a 2.3 mM stock in DMSO and mixed in a 1:1 ratio with 10% (w/v) Pluronic F-127 and diluted in assay buffer [HBSS (Invitrogen) supplemented with 20 mM HEPES and 2.5 mM probenecid, pH 7.4] for 1 h at 37° C. and 5% CO2. Dye was removed and replaced with 50 μL of assay buffer. For calcium fluorescence measurements, CRCs of compounds (50 μl, 2×) were added 19 s after the beginning of data collection via a Flexstation II (Molecular Devices, Sunnyvale, Calif.). Fluorescence imaging continued for a total of 130 s acquisition time using an excitation wavelength of 488 nm, an emission wavelength of 525 nm, and a cutoff wavelength of 515 nm. All of the peaks of the calcium response were normalized to the response to a maximally effective concentration of ACh (ECmax). These normalized peak calcium response values were fit using GraphPad Prism version 4.0 to a four-parameter logistic equation to determine EC50 values.
# [1] = rat M1, agonist-evoked calcium mobilization in CHO-K1 cells, read-out: Potency (EC50)
Compound,EC50 [nM],Emax [%],EC50 [1] [nM]
"CCOC(=O)N1C2CCC1CC(NCCNC(=O)c1ccccc1)C2 (centres unmarked) [Example 18, ethyl 3-{[2-(phenylformamido)ethyl]-amino}-8-azabicyclo[3.2.1]octane-8-carboxylate]",67,103,–
"CCOC(=O)N1C2CCC1CC(NCCNC(=O)c1ccccc1C)C2 (centres unmarked) [Example 3, ethyl 3-({2-[(2-methylphenyl)formamido]-ethyl}amino)-8-azabicyclo[3.2.1]octane-8-carboxylate]",85,81,–
"CCOC(=O)N1C2CCC1CC(NCCNC(=O)c1ccccc1Cl)C2 (centres unmarked) [Example 25, ethyl 3-({2-[(2-chlorophenyl)formamido]-ethyl}amino)-8-azabicyclo[3.2.1]octane-8-carboxylate]",–,80,112
"CCOC(=O)N1C2CCC1CC(NCCNC(=O)c1c(F)cccc1F)C2 (centres unmarked) [Example 21, ethyl 3-({2-[(2,6-difluorophenyl)formamido]-ethyl}amino)-8-azabicyclo[3.2.1]octane-8-carboxylate]",–,18,880
"CCOC(=O)N1C2CCC1CC(NCCNC(=O)Cc1ccccc1)C2 (centres unmarked) [Example 19, ethyl 3-{[2-(2-phenylacetamido)ethyl]-amino}-8-azabicyclo[3.2.1]octane-8-carboxylate]",–,33,–
"CCOC(=O)N1C2CCC1CC(NCCNC(=O)c1cccc(OC)c1)C2 (centres unmarked) [Example 4, ethyl 3-({2-[(3-methoxy-phenyl)formamido]-ethyl}amino)-8-azabicyclo[3.2.1]octane-8-carboxylate]",–,81,211
"CCOC(=O)N1C2CCC1CC(NCCNC(=O)c1ccc(F)c(F)c1)C2 (centres unmarked) [Example 15, ethyl 3-({2-[(3,4-difluorophenyl)formamido]-ethyl}amino)-8-azabicyclo[3.2.1]octane-8-carboxylate]",–,104,122
"CCOC(=O)N1C2CCC1CC(NCCNC(=O)c1ccccn1)C2 (centres unmarked) [Example 16, ethyl 3-{[2-(pyridin-2-ylformamido)ethyl]-amino}-8-azabicyclo[3.2.1]octane-8-carboxylate]",–,22,–
"CCOC(=O)N1C2CCC1CC(NCCNC(=O)c1ccc(C)c(C)c1)C2 (centres unmarked) [Example 11, ethyl 3-({2-[(3,4-dimethylphenyl)formamido]-ethyl}amino)-8-azabicyclo[3.2.1]octane-8-carboxylate]",–,48,–
"CCOC(=O)N1C2CCC1CC(NCCNC(=O)c1ccc(Cl)c(Cl)c1)C2 (centres unmarked) [Example 10, ethyl 3-({2-[(3,4-dichlorophenyl)formamido]-ethyl}amino)-8-azabicyclo[3.2.1]octane-8-carboxylate]",–,49,1020
"CCOC(=O)N1C2CCC1CC(NCCNC(=O)c1ccc(F)cc1F)C2 (centres unmarked) [Example 6, ethyl 3-({2-[(2,4-difluorophenyl)formamido]-ethyl}amino)-8-azabicyclo[3.2.1]octane-8-carboxylate]",72,82,–
"CCOC(=O)N1C2CCC1CC(NCCNC(=O)c1ccc(F)c(C(F)(F)F)c1)C2 (centres unmarked) [Example 23, ethyl 3-[(2-{[4-fluoro-3-(trifluoromethyl)phenyl]-formamido}ethyl)amino]-8-azabicyclo[3.2.1]octane-8-carboxylate]",–,47,2720
"CCOC(=O)N1C2CCC1CC(NCCNC(=O)c1ccc(C)c(F)c1)C2 (centres unmarked) [Example 13, ethyl 3-({2-[(3-fluoro-4-methylphenyl)formamido]-ethyl}amino)-8-azabicyclo[3.2.1]octane-8-carboxylate]",–,50,631
"CCOC(=O)N1C2CCC1CC(NCCNC(=O)c1ccco1)C2 (centres unmarked) [Example 14, ethyl 3-{[2-(furan-2-ylformamido)ethyl]-amino}-8-azabicyclo[3.2.1]octane-8-carboxylate]",–,24,–
"CCOC(=O)N1C2CCC1CC(NCCNC(=O)c1cccc(C)c1)C2 (centres unmarked) [Example 9, ethyl 3-({2-[(3-methylphenyl)formamido]-ethyl}amino)-8-azabicyclo[3.2.1]octane-8-carboxylate]",–,103,115
"CCOC(=O)N1C2CCC1CC(NCCNC(=O)c1ccccc1F)C2 (centres unmarked) [Example 2, Ethyl 3-(2-(2-fluorobenzamido)ethylamino)-8-azabicyclo[3.2.1]octane-8-carboxylate]",69,103,–
CCOC(=O)N1C2CCC1CC(NCCNC(=O)c1ccc(Cl)cc1)C2 (centres unmarked) [Example 24],–,25,1070
"CCOC(=O)N1C2CCC1CC(NCCNC(=O)c1ccc3c(c1)CCO3)C2 (centres unmarked) [Example 12, ethyl 3-{[2-(2,3-dihydro-1-benzofuran-5-ylformamido)ethyl]-amino}-8-azabicyclo[3.2.1]octane-8-carboxylate]",–,31,–
"CCOC(=O)N1C2CCC1CC(NCCNC(=O)c1ccc(Cl)cc1F)C2 (centres unmarked) [Example 17, ethyl 3-({2-[(4-chloro-2-fluorophenyl)formamido]-ethyl}amino)-8-azabicyclo[3.2.1]octane-8-carboxylate]",–,20,–
"CCOC(=O)N1C2CCC1CC(NCCNC(=O)Cc1cccs1)C2 (centres unmarked) [Example 20, ethyl 3-({2-[2-(thiophen-2-yl)acetamido]ethyl}-amino)-8-azabicyclo[3.2.1]octane-8-carboxylate]",–,51,–
"CCOC(=O)N1C2CCC1CC(NCCNC(=O)c1ccc(F)cc1C(F)(F)F)C2 (centres unmarked) [Example 5, ethyl 3-[(2-{[4-fluoro-2-(trifluoromethyl)phenyl]-formamido}ethyl)-amino]-8-azabicyclo[3.2.1]octane-8-carboxylate]",–,39,–
"CCOC(=O)N1C2CCC1CC(NCCNC(=O)c1ccc(C)cc1)C2 (centres unmarked) [Example 8, ethyl 3-({2-[(4-methylphenyl)formamido]-ethyl}amino)-8-azabicyclo[3.2.1]octane-8-carboxylate]",–,47,–
"CCOC(=O)N1C2CCC1CC(NCCNC(=O)c1cccs1)C2 (centres unmarked) [Example 1, Ethyl 3-(2-(thiophene-2-carboxamido)ethylamino)-8-azabicyclo[3.2.1]octane-8-carboxylate]",74,88,–
"CCOC(=O)N1C2CCC1CC(NCCNC(=O)c1ccc(F)c(OC)c1)C2 (centres unmarked) [Example 22, ethyl 3-({2-[(4-fluoro-3-methoxyphenyl)formamido]-ethyl}amino)-8-azabicyclo[3.2.1]octane-8-carboxylate]",–,12,1460
"CCOC(=O)N1C2CCC1CC(NCCNC(=O)c1ccc(F)cc1Cl)C2 (centres unmarked) [Example 7, ethyl 3({2-[(2-chloro-4-fluorophenyl)formamido]-ethyl}amino)-8-azabicyclo[3.2.1]octane-8-carboxylate]",96,95,–

# Source: patent US8697691B2, “Alkyl 3-((2-amidoethyl)amino)-8-azabicyclo[3.2.1]octane-8-carboxylate analogs as selective M1 agonists and methods of making and using same” (Vanderbilt University, priority 2009, dated 2014)
